Experimental data reported in PMC9358669, “Native metabolomics identifies the rivulariapeptolide family of protease inhibitors” (Nature Communications, 2022).
Where “and” joins values, the source holds several entries; their conditions need not be identical. Equal entries are not always repeated. Where two headings read alike, the source gives them in different places.

How the values were obtained:
[1] = molecular target: T1, Chymotrypsin (Bos taurus, UniProt P00766); assay: Native metabolomics / native MS detection of chymotrypsin-ligand complexes; assay type: binding; details: for max. Ligand-protein ratio: replicates A, B, C
T1 construct: purchased Sigma-Aldrich
Protocol: For native metabolomics experiments, the same chromatographic parameters were used and in addition, 220 µL/min (setup A) or 150 µL/min (setup B) ammonium acetate buffer was infused post-column through a make-up pump and a PEEKT-splitter and enzyme solution was infused with 2 µL/min flow rate via the integrated syringe pump. ESI settings were set to 40 arb. units sheath gas flow, the auxiliary gas flow was set to 10 arb. units and sweep gas flow was set to 0 arb. units. The auxiliary gas temperature was set to 150 °C. The spray voltage was set to 3 kV and the inlet capillary was heated to 253 °C. S-lens level was set to 30 V applied. MS scan range was set to 2000-4000 m/z (setup A) and 2500–4000 m/z (setup B) with a resolution Rm/z 200 140,000 (setup A) and 120,000 (setup B) with 2 microscans. MS acquisition was performed in all-ion fragmentation (AIF) mode with Rm/z 200 with 20% HCD collision energy and an isolation window of 2000 –4000 m/z (setup A) or 2500–4000 m/z (setup B).
For native LC-MS data, multiple charged spectra were deconvoluted using the Xtract algorithm in Qualbrowser, part of the Xcalibur software (Thermo Scientific) and also using FLASHDeconv (version 2.0Beta) {Jeong, K. et al. FLASHDeconv: Ultrafast, High-Quality Feature Deconvolution for Top- Down Proteomics. Cell Syst 10, 213-218 e216 (2020).}. For Xtract algorithm, both deconvoluted native LC-MS and metabolomics LC-MS/MS.raw files were converted to the centroid.mzML file format using MSconvert of the proteowizard software package. For FLASHDeconv, the raw files were converted into centroid m/zML again using MSconvert software first. Then the converted mzML files were deconvolved to generate deconvolved.mzML format files. Feature finding of both file types was performed using a modified version of MZmine2.37 (corr.17.7). Feature tables from both intact protein mass and metabolomics data were matched by their retention time (RT) and an m/z offset corresponding to the mass of chymotrypsin (25234 Da) with an RT tolerance of 0.2 min and a mass tolerance of 4 Da.
To optimize ESI setting as well as the influence of NH4Acetate concentration and pH, we used molassamide as a test compound. For optimization of ESI settings, we performed flow injections without a column and ramped ESI aux gas temperature, in-source CID energy, S-lense RF voltage. Optimization of pH values over the entire LC gradient and peak intensities were both assessed using three different make-up buffers. Make-up buffer 1 was water, make-up buffer 2 was 10 mM NH4Acetate buffer, and make-up buffer 3 was 10 mM NH4Acetate buffer + 0.2% ammonium hydroxide, v/v. Effects of NH4Acetate concentration was assessed with an online mixed make-up flow (using Experimental Setup B) with the low-pressure gradient pump. As solvent A we used LC-MS grade water and 100 mM NH4Acetate as solvent B. Molassamide was prepared as 100 µM solutions from a 10 mM stock solution in DMSO by preparing a 1:100 dilution into solvent mixture 1 (water + 10% acetonitrile + 0.1% formic acid). Samples were analyzed as described in micro-flow LC-MS/MS data acquisition (setup A); 2 µL of each solution were injected into the mass spectrometer, while chymotrypsin (Sigma), dissolved in water to a final concentration of 2 mg/mL, was injected through the syringe pump at a flow rate of 2 µL/min. pH values were assessed by disconnecting the flow to the source and collecting ~30 µL of solvent every minute, then testing this value on pH paper.
Molassamide was prepared as 100 µM solutions from a 10 mM stock solution in DMSO by preparing a 1:100 dilution into solvent mixture 1 (water + 10% acetonitrile + 0.1% formic acid). From this 100 µM solution, dilutions were prepared at 10, 1, and 0.1 µM into solvent mixture 1. 2 µL of each solution were injected into the mass spectrometer. […]

[2] = tested on: Chymotrypsin; set-up: method as in earlier work; details: Supplementary Table 5, Top 50 chymotrypsin inhibitors among Ahp-cyclodepsipeptides; cited from earlier work
[3] = molecular target: T2, Elastase (Sus scrofa, UniProt P00772); assay: Elastase inhibition, fluorogenic substrate assay (MeOSuc-Ala-Ala-Pro-Val-AMC); assay type: biochemical, Sus domesticus; details: 40 min pre-incubation; for Mean (RFU/s): Elastase
T2 construct: purchased Sigma-Aldrich

[4] = molecular target: T1, Chymotrypsin; assay: Chymotrypsin inhibition, fluorogenic substrate assay (Suc-Ala-Ala-Pro-Phe-AMC); assay type: biochemical; details: for Mean (RFU/s): Chymotrypsin
[5] = molecular target: T3, Proteinase K (Parengyodontium album, UniProt P06873); assay: Proteinase K inhibition, fluorogenic substrate assay (Suc-Ala-Ala-Pro-Phe-AMC); assay type: biochemical, Tritirachium album; details: 40 min pre-incubation; for Mean (RFU/s): Proteinase K
T3 construct: purchased Roche

[6] = inhibitor concentration 0.0508053 nM
[7] = inhibitor concentration 0.152416 nM
[8] = inhibitor concentration 0.457247 nM
[9] = inhibitor concentration 1.37174 nM
[10] = inhibitor concentration 4.11523 nM
[11] = inhibitor concentration 12.3457 nM
[12] = inhibitor concentration 37.037 nM
[13] = inhibitor concentration 111.111 nM
[14] = inhibitor concentration 333.333 nM
[15] = inhibitor concentration 1000 nM
[16] = inhibitor concentration 3000 nM

T2 sequence (P00772 27-266): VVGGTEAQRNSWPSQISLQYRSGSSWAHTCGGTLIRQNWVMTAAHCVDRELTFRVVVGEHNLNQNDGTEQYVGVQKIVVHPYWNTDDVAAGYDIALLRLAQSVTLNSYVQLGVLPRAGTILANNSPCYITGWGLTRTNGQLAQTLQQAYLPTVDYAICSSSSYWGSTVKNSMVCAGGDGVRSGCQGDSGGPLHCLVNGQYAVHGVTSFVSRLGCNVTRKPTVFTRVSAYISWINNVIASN
T3 sequence (P06873 106-384): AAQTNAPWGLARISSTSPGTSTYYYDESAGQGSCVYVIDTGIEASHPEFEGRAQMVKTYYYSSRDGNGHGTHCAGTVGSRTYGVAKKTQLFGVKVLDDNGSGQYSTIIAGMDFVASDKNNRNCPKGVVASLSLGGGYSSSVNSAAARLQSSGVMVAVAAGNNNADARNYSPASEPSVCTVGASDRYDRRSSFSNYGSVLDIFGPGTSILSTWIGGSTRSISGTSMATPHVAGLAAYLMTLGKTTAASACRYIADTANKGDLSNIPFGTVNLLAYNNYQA

C/C=C1\NC(=O)[C@@H](NC(=O)[C@@H](NC(=O)[C@H](C)NC(=O)CCC)[C@@H](C)O)[C@@H](C)OC(=O)[C@H](C(C)C)NC(=O)[C@H](Cc2ccc(O)cc2)N(C)C(=O)[C@H](Cc2ccccc2)N2C(=O)[C@H](CC[C@H]2O)NC1=O [Molassamide, molassamide]
Relative abundance Chymotrypsin-molassamide complex [%], Average ([1]; HESI Aux Gas Temperature 40 °C): 32.7% | Relative abundance Chymotrypsin-molassamide complex [%], Average ([1]; HESI Aux Gas Temperature 70 °C): 28.3% | Relative abundance Chymotrypsin-molassamide complex [%], Average ([1]; HESI Aux Gas Temperature 100 °C): 32.3% | Relative abundance Chymotrypsin-molassamide complex [%], Average ([1]; HESI Aux Gas Temperature 140 °C): 39.0% | Relative abundance Chymotrypsin-molassamide complex [%], Average ([1]; HESI Aux Gas Temperature 170 °C): 34.0% | Relative abundance Chymotrypsin-molassamide complex [%], Average ([1]; HESI Aux Gas Temperature 200 °C): 35.3% | Relative abundance Chymotrypsin-molassamide complex [%], Average ([1]; HESI Aux Gas Temperature 250 °C): 27.7% | Relative abundance Chymotrypsin-molassamide complex [%], Average ([1]; HESI Aux Gas Temperature 300 °C): 28.7% | Relative abundance Chymotrypsin-molassamide complex [%], Average ([1]; In-Source CID Energy 0 eV): 27.7% | Relative abundance Chymotrypsin-molassamide complex [%], Average ([1]; In-Source CID Energy 10 eV): 29.3% | Relative abundance Chymotrypsin-molassamide complex [%], Average ([1]; In-Source CID Energy 20 eV): 33.0% | Relative abundance Chymotrypsin-molassamide complex [%], Average ([1]; In-Source CID Energy 30 eV): 32.3% | Relative abundance Chymotrypsin-molassamide complex [%], Average ([1]; In-Source CID Energy 40 eV): 30.7% | Relative abundance Chymotrypsin-molassamide complex [%], Average ([1]; In-Source CID Energy 60 eV): 12.3% | Relative abundance Chymotrypsin-molassamide complex [%], Average ([1]; In-Source CID Energy 80 eV): 1.3% | Relative abundance Chymotrypsin-molassamide complex [%], Average ([1]; S-Lense RF level 10 %): 34.3% | Relative abundance Chymotrypsin-molassamide complex [%], Average ([1]; S-Lense RF level 30 %): 31.0% | Relative abundance Chymotrypsin-molassamide complex [%], Average ([1]; S-Lense RF level 50 %): 30.0% | Relative abundance Chymotrypsin-molassamide complex [%], Average ([1]; S-Lense RF level 70 %): 40.7% | Relative abundance Chymotrypsin-molassamide complex [%], Average ([1]; S-Lense RF level 90 %): 30.7% | max. Ligand-protein ratio ([1]; concentration 0.01 µM): 0.00 | max. Ligand-protein ratio ([1]; concentration 0.10 µM): 0.0566 and 0.0543 and 0.05 | max. Ligand-protein ratio ([1]; concentration 1.00 µM): 0.25 and 0.22 and 0.26 | max. Ligand-protein ratio ([1]; concentration 6.67 µM): 0.77 (2×) and 0.82 | max. Ligand-protein ratio ([1]; concentration 12.50 µM): 0.98 and 0.93 and 0.99 | max. Ligand-protein ratio ([1]; concentration 20.00 µM): 0.94 (2×) and 1.00 | Peak Area Protein-Ligand-Complex ([1]; concentration [µM] 0.1): 6.16E+04 | Peak Area Protein-Ligand-Complex ([1]; concentration [µM] 1): 8.18E+05 | Peak Area Protein-Ligand-Complex ([1]; concentration [µM] 10): 1.09E+07 | Peak Area Protein-Ligand-Complex ([1]; concentration [µM] 50): 4.40E+07 | Peak Area Protein-Ligand-Complex ([1]; concentration [µM] 100): 7.00E+07 | IC50 [2]: 234 nM | IC50 ([3]; mean, n = 3): 37.6 nM | Mean (RFU/s) [3, 6]: 0.8563 RFU/s | Mean (RFU/s) [3, 7]: 0.8307 RFU/s | Mean (RFU/s) [3, 8]: 0.841 RFU/s | Mean (RFU/s) [3, 9]: 0.8127 RFU/s | Mean (RFU/s) [3, 10]: 0.7663 RFU/s | Mean (RFU/s) [3, 11]: 0.6947 RFU/s | Mean (RFU/s) [3, 12]: 0.4253 RFU/s | Mean (RFU/s) [3, 13]: 0.1337 RFU/s | Mean (RFU/s) [3, 14]: 0.03867 RFU/s | Mean (RFU/s) [3, 15]: 0 RFU/s | Mean (RFU/s) [3, 16]: 0 RFU/s | IC50 ([4]; 40 min pre-incubation, mean, n = 3, read-out: IC50 Chymotrypsin): 863 nM | Mean (RFU/s) ([4]; inhibitor concentration 0.0508053 nM, 40 min pre-incubation): 5.082 RFU/s | Mean (RFU/s) ([4]; inhibitor concentration 0.152416 nM, 40 min pre-incubation): 5.023 RFU/s | Mean (RFU/s) ([4]; inhibitor concentration 0.457247 nM, 40 min pre-incubation): 5.172 RFU/s | Mean (RFU/s) ([4]; inhibitor concentration 1.37174 nM, 40 min pre-incubation): 5.411 RFU/s | Mean (RFU/s) ([4]; inhibitor concentration 4.11523 nM, 40 min pre-incubation): 5.346 RFU/s | Mean (RFU/s) ([4]; inhibitor concentration 12.3457 nM, 40 min pre-incubation): 5.257 RFU/s | Mean (RFU/s) ([4]; inhibitor concentration 37.037 nM, 40 min pre-incubation): 4.609 RFU/s | Mean (RFU/s) ([4]; inhibitor concentration 111.111 nM, 40 min pre-incubation): 4.56 RFU/s | Mean (RFU/s) ([4]; inhibitor concentration 333.333 nM, 40 min pre-incubation): 3.784 RFU/s | Mean (RFU/s) ([4]; inhibitor concentration 1000 nM, 40 min pre-incubation): 2.129 RFU/s | Mean (RFU/s) ([4]; inhibitor concentration 3000 nM, 40 min pre-incubation): 0.9597 RFU/s | IC50 ([4]; Supplementary Table 5, compounds of this study, read-out: Chymotrypsin IC50): 862 nM | IC50 ([5]; mean, n = 3): 21.6 nM | Mean (RFU/s) [5, 6]: 6.609 RFU/s | Mean (RFU/s) [5, 7]: 6.463 RFU/s | Mean (RFU/s) [5, 8]: 6.371 RFU/s | Mean (RFU/s) [5, 9]: 6.067 RFU/s | Mean (RFU/s) [5, 10]: 5.597 RFU/s | Mean (RFU/s) [5, 11]: 4.375 RFU/s | Mean (RFU/s) [5, 12]: 2.174 RFU/s | Mean (RFU/s) [5, 13]: 0.71 RFU/s | Mean (RFU/s) [5, 14]: 0.19 RFU/s | Mean (RFU/s) [5, 15]: 0.07 RFU/s | Mean (RFU/s) [5, 16]: 0 RFU/s
